Reference: article PMC12070314, “Efficient Small-Molecule Reversal Agents for Anticoagulant Fondaparinux” (ACS Pharmacology & Translational Science, 2025)

Legend:
[1] = tested on: FXa/ATIII inhibited by fondaparinux; experiment: In vitro FXa/ATIII enzymatic assay of anti-fondaparinux activity; assay type: biochemical, human; details: for Percent recovery of peptide substrate hydrolysis: [fond] = [antidote] = 15 μM, three reaction times
Experimental: The activity of two spermine derivatives, 3AC and 3FF, as fond antidotes was evaluated with an in vitro enzymatic assay related to blood coagulation, as previously described (Figure A). , In brief, fond promotes a conformational change in ATIII toward an efficient inhibitor of FXa. Addition of a ligand of fond hinders the inhibitory action of ATIII restoring the FXa hydrolytic activity, which has been used as an indirect measurement of antifond behavior.
Recombinant antithrombin III and coagulation factor Xa were obtained from two different kits, Berichrom Heparin test (SIEMENS) and Kinetichrome Anti-Xa Heparin kit (Iduron). Methods for both kits are similar, but not identical. Differences will be spotted by method A (SIEMENS) and method B (Iduron). Following the manufacturer’s instructions, stock solutions were prepared as follows: human antithrombin III (1 IU/mL) and factor Xa reagent (0.4 μg/mL, human plasma fraction with additives Tris, sodium chloride, and EDTA). Chromogenic substrate specific for factor Xa was dissolved at 4 mM concentration (A: Z-D-Leu-Gly-Arg-ANBA-methyl amide, and B: Z-D-Arg-Gly-Arg-pNA). Additionally, either 4-nitroaniline (A) or N-Boc-4-nitroaniline (B) was added to the substrate solution at a concentration of 1.6 mM and used as an internal standard to quantify the hydrolysis of the chromogenic substrate. All compounds were dissolved in Milli-Q water at the desired stock concentrations prior to start of the assays and kept at 4 °C. Various concentrations of the ligand, fondaparinux (up to 15 μM) or LMWH (0.1 to 10 μM), human antithrombin III solution (2 μL), and factor Xa reagent solution (35 μL) were consecutively added to an Eppendorf vial and brought to a total volume of 145 μL. Then, 20 μL of reagent substrate solution was added to start the experiment, and the mixture was vigorously shaken at 25 °C. 20 μL aliquots were taken at 5/10/15/20/30/50/80/120 minutes, diluted with 40 μL of acetic acid (20% v/v), and injected into the analytical HPLC system. The gradient ranged from 5% of ACN (0.1% formic acid) in water (0.1% formic acid) to 100% of ACN in 24 min using a 15 × 4.6 mm KROMAPHASE C18 5.0 μm column. In A: the retention time of cleaved chromophore was 9.1 min, retention time of chromogenic substrate was 13.9 min, and retention time of 4-nitroaniline was 15.4 min. In B: the retention time of chromogenic substrate was 11.0 min, retention time of cleaved chromophore was 15.2 min, and retention time of N-Boc-4-nitroaniline was 21.7 min. FXa/ATIII activity was represented as the percent of hydrolysis, which was calculated from the normalized area of the cleaved peptide at 405 nm at each corresponding time point. The experiment carried out in the absence of heparinoid was considered as the maximum of activity, while the experiment with heparinoid and no ligand was considered as negative control (maximum inhibition of FXa by heparinoid). The concentration of heparinoid was selected for the measurement to render significant inhibition within experimental time while allowing the reaction to proceed.

[2] = tested on: freshly extracted mouse blood; experiment: Naked-eye ex vivo blood coagulation assay; assay type: cell-based; details: for Reversal of fond anticoagulant effect (clot formation by vial inversion): 100 μM fond + 200 μM antidote, 5 min
Experimental: Considering the results obtained in the in vitro assays, we aimed to test our molecules in a more relevant and challenging environment. To this aim, we performed naked-eye ex vivo coagulation assays (Figure ). Freshly extracted mouse blood samples were treated with fond (100 μM final concentration) in the absence and in the presence of different antidotes (two molar equivalents). Blood coagulation was visually inspected by the simple inversion of the vials. For a fair comparison between different series, all of the experiments were done in parallel with the corresponding control samples of untreated mouse blood (labeled “0” in Figure ). […] The effect of antidotes alone on blood coagulation was also tested (Figure B), showing that neither of the three small molecules appreciably changed the coagulation properties.
This naked-eye coagulation test is an adaptation of the whole blood clotting time assay. , Freshly collected mouse blood was directly used without further treatment. 300 μL aliquots were dispensed in Eppendorf tubes, to which fondaparinux (100 μM), and/or potential antidotes (3AC, 3FF, ciraparantag, or protamine, 200 μM) were added, and a picture was taken after 5 min. Clot formation was verified by inverting the Eppendorf vials.

| Compound | Percent recovery of peptide substrate hydrolysis [1] | Reversal of fond anticoagulant effect (clot formation by vial inversion) [2] | Effect on FXa hydrolytic activity ([1]; fond 15 μM, FXa/ATIII, no antidote) | Effect on blood coagulation (vial inversion) ([2]; fond 100 μM alone) | Effect of antidote alone on blood coagulation ([2]; 200 μM antidote, no fond) |
| --- | --- | --- | --- | --- | --- |
| Oc1ccccc1CNCCCNCCCCNCCCNCc1ccccc1O [Compound 3AA] | lower potency as antidotes | – | – | – | – |
| COc1ccccc1CNCCCNCCCCNCCCNCc1ccccc1OC [Compound 3BB] | lower potency as antidotes | – | – | – | – |
| N=C(N)NCCC[C@H](N)C(=O)NCCCN1CCN(CCCNC(=O)[C@@H](N)CCCNC(=N)N)CC1 [cir, ciraparantag, reference compound] | performs similarly to the spermine derivative ligand (3AA) | good antidote, though qualitatively less effective than 3AC/3FF | – | – | – |
| CO[C@H]1O[C@H](COS(=O)(=O)O)[C@@H](O[C@@H]2O[C@@H](C(=O)O)[C@@H](O[C@H]3O[C@H](COS(=O)(=O)O)[C@@H](O[C@@H]4O[C@H](C(=O)O)[C@@H](O[C@H]5O[C@H](COS(=O)(=O)O)[C@@H](O)[C@H](O)[C@H]5NS(=O)(=O)O)[C@H](O)[C@H]4O)[C@H](OS(=O)(=O)O)[C@H]3NS(=O)(=O)O)[C@H](O)[C@H]2OS(=O)(=O)O)[C@H](O)[C@H]1NS(=O)(=O)O [fond, Fondaparinux] | – | – | clearly reduces the hydrolytic activity | anticoagulant effect | – |
| protamine | practically no in vitro activity against fond | fails to be an antidote of fond | – | – | acts as an anticoagulant itself |
